Experimental data taken from patent US8841413B2, “Antidiabetic compounds” (Cadila Healthcare Limited, priority 2006, dated 2014).

Experiments:
[1] = system: db/db mice; experiment: In vivo glucose reduction in db/db mice; conditions: oral (p.o) administration, FIG. 10
Procedure: Acute single dose 120-min time-course experiments were carried out in male C57BL/6J or db/db mice, age 8-12 weeks, bred in-house. Animals were housed in groups of 6 animals per cage, for a week, in order to habituate them to vivarium conditions (25±4° C., 60-65% relative humidity, 12:12 h light:dark cycle, with lights on at 7.30 am). All the animal experiments were carried out according to the internationally valid guidelines following approval by the ‘Zydus Research Center animal ethical committee’. […] Two days prior to the study, the animals were randomised and divided into 5 groups (n=6), based upon their fed glucose levels. On the day of experiment, food was withdrawn from all the cages, water was given ad-libitum and were kept for overnight fasting. Vehicle (normal saline)/test/standard compounds were administered intraperitoneally (i.p.) or orally, on a body weight basis. […] The glucose estimation was carried out with DPEC-GOD/POD method (Ranbaxy Fine Chemicals Limited, Diagnostic division, India), using Spectramax-190, in 96-microwell plate reader (Molecular devices Corporation, Sunnyvale, Calif.). […] The AUC and BCAUC obtained from graphs were analyzed for one way ANOVA, followed by Dunnett's post test, using Graph Pad prism software. […]

[2] = system: C57BL/6J mice; experiment: Acute single dose 120-min time-course experiment, in vivo glucose reduction in C57BL/6J mice; set-up: unit not given here; conditions: male C57BL/6J mice, Mean ± SEM
Procedure: All the animal experiments were carried out according to the internationally valid guidelines following approval by the ‘Zydus Research Center animal ethical committee’. […] Two days prior to the study, the animals were randomised and divided into 5 groups (n=6), based upon their fed glucose levels. On the day of experiment, food was withdrawn from all the cages, water was given ad-libitum and were kept for overnight fasting. Vehicle (normal saline)/test/standard compounds were administered intraperitoneally (i.p.) or orally, on a body weight basis. […] Blood samples were centrifuged and the separated serum was immediately subjected for the glucose estimation. Serum for insulin estimation was stored at −70° C. until used for the insulin estimation. The glucose estimation was carried out with DPEC-GOD/POD method (Ranbaxy Fine Chemicals Limited, Diagnostic division, India), using Spectramax-190, in 96-microwell plate reader (Molecular devices Corporation, Sunnyvale, Calif.). […] The AUC and BCAUC obtained from graphs were analyzed for one way ANOVA, followed by Dunnett's post test, using Graph Pad prism software. Furthermore, the insulin estimation was carried out using rat/mouse insulin ELISA kit (Linco research, Mo. USA).

## CCc1cc(OC)ccc1-c1ccc(CC(NC(=O)[C@H](CC(=O)O)NC(=O)[C@H](CO)NC(=O)[C@@H](NC(=O)C(C)(Cc2ccccc2F)NC(=O)[C@@H](NC(=O)CNC(=O)[C@H](CCC(N)=O)NC(=O)C(C)(C)NC(=O)[C@@H](N)Cc2c[nH]cn2)[C@@H](C)O)[C@@H](C)O)C(=O)NC(Cc2ccc(-c3ccccc3C(F)(F)F)cc2)C(N)=O)cc1 (single isomer, unassigned) [Seq. ID. No. 32, H-Aib-QGT-(α-Me-2F-Phe)-TSD-Bip(OMe)-Bip(2CF3)]
[1]
  in vivo glucose reduction (in words): glucose reduction
[2]; 10 nM/kg, i.p, 0 min
  blood glucose level: 182 ± 2.3
[2]; 10 nM/kg, i.p, 30 min
  blood glucose level: 110 ± 2.3
[2]; 10 nM/kg, i.p, 60 min
  blood glucose level: 112 ± 3.0
[2]; 10 nM/kg, i.p, 120 min
  blood glucose level: 112 ± 1.9
[2]; 2 μM/kg, oral, 0 min
  blood glucose level: 181 ± 2.5
[2]; 2 μM/kg, oral, 30 min
  blood glucose level: 117 ± 3.3
[2]; 2 μM/kg, oral, 60 min
  blood glucose level: 112 ± 4.0
[2]; 2 μM/kg, oral, 120 min
  blood glucose level: 108 ± 2.9
